# In US11241501B2, “Anticancer prodrug for overcoming drug resistance” (Korea University Research and Business Foundation, priority 2018, dated 2022):
# Assays:
# [1] = Stability on incubation in PBS; type: physicochemical; settings: PBS pH 7.4, 37° C., 24 hr
# Procedure: To gain further insight into the preliminary stability and activation of conjugates containing DCA, Dox, and a TPP cation targeting entity, both the target conjugate C1 and the control system C3 (an analog of C1 lacking the chloromethyl groups present in DCA; cf. FIG. 1) were prepared. These two conjugates were obtained in excellent yield, as shown in Scheme S1. […] This release was accompanied by a strong emission band at 560 nm corresponding to free Dox (FIG. 2A and FIG. 2B). Further support for the release of free Dox under these conditions came from time-dependent fluorescence experiments, HPLC, and liquid chromatography-mass spectrometry (FIG. 2B and FIG. 2C, and FIG. 7). […] To test the reaction of C1 with various other bioanalytes, the fluorescence response in the presence of various amino acids, enzymes, and biomolecules was recorded.
# carboxylesterase = experiment: Carboxylesterase activation, fluorescence response and Dox release; type: biochemical
# Procedure: The change in fluorescence intensity is directly related to active Dox release from C1.
# FIG. 8 is a bar diagram representing the fluorescence intensity of C1 (5 μM) recorded at 570 nm after 4 h incubation in the presence or absence of carboxylesterase (1 U/ml), and various biological analytes, including amino acids (100 μM), thiols (10 mM, each), and reactive oxygen species (ROS) (200 μM, each) (Excitation at 470 nm). 1) C1 only, 2) L-proline, 3) L-ascorbic acid, 4) L-glutamic acid, 5) nicotinamide adenine dinucleotide (NADH), 6) pepsin, 7) acetylcholinesterase (AChE), 8) butyrylcholinesterase (BChE), 9) L-glutathione, 10) H2O2, 11) hypochlorite ion (OCl^−) 12) C1+esterase;
# The maximal fluorescence intensity was recorded after 4 h. […] Note: The change in fluorescence intensity is considered to be proportional to the quantity of active Dox release from […]. […]
# To gain further insight into the preliminary stability and activation of conjugates containing DCA, Dox, and a TPP cation targeting entity, both the target conjugate C1 and the control system C3 (an analog of C1 lacking the chloromethyl groups present in DCA; cf. FIG. 1) were prepared. […] Further support for the release of free Dox under these conditions came from time-dependent fluorescence experiments, HPLC, and liquid chromatography-mass spectrometry (FIG. 2B and FIG. 2C, and FIG. 7). […]
# [2] = system: cancer cells (A549 and HepG2), normal cells (NHDF and IMR90); experiment: Cellular uptake of compounds in normal and cancer cells; type: cell-based, human; settings: 5 μM, 6 h, A549, HepG2 vs NHDF
# Procedure: Cells were treated with 5 μM of each compound for 6 h. Fluorescence intensities were determined using SpectraMAX 13;
# (§1) To analyze the cellular fluorescence levels upon compound treatment, cells were seeded in plates 1 day before treatment with the compounds. Cells were then treated with each compound for the indicated dose or time course. After the experiment, cells were washed with ice-cold PBS, trypsinized, and centrifuged. The cell pellet was re-suspended in 300 μL of PBS and then analyzed using a multiplate reader (SpectraMAX I3x). The results were normalized according to the number of cells.
# MCF7 and MCF7/Dox cells = experiment: Intracellular accumulation, fluorescence assay; type: cell-based, human; settings: up to 12 hr after treatment
# Procedure: Fluorescence intensities were measured with SpectraMAX 13. Data represent means±SD. **p<0.01. […] Data represent means±SD. **[…]. […] Data represent the mean±SD (n=3 experimental replicates). *p<0.05, **p<0.01. […] MCF7/Dox cells were treated with C1 or C3 as indicated, and the cytosolic (C) and mitochondrial (M) fractions were subjected to immunoblot assay. COX-IV and tubulin were used as markers for the mitochondria and cytosol fractions, respectively.
# Mito-tracker (green) was utilized to show the mitochondria;
# as §1
# MCF7 xenograft tumors = experiment: Xenograft tumor study; type: in vivo; settings: mice, C1 15 mg/kg/d, Dox 2 mg/Kg/d + DCA 50 mg/Kg/d, once every four days
# Procedure: (§2) Data represent the mean±SD. *p<0.05.
# (§3) To assess tumor target specificity and the organ distribution of C1 in vivo and ex vivo, MCF7 and MCF7/Dox cells were injected subcutaneously into mice. When tumor growth reached a detectable size, the mice were treated with C1 (15 mg/kg/d), doxorubicin (2 mg/Kg/d)+DCA (50 mg/Kg/d), or vehicle (DMSO) by i.v. injection once every 4 days for 30 days. After 15 days of treatment, the animals were euthanized via CO2 asphyxiation. The xenograft tumors were excised and photographed. In vivo fluorescence images of the mice were recorded and quantified using a Maestro2 instrument (excitation and emission wavelengths: 500 and 650 nm, respectively). The fluorescence images and auto-fluorescence were then deconvoluted using the software provided with the instrument (Maestro software ver.2.4, CRi, Woburn, Mass., USA) using the multiexcitation spectral analysis function.
# (§4) Five-week-old immunodeficient nude mice (nu/nu) mice (Orient Bio, Inc.) were maintained in pressurized ventilated cages under conditions of repeated controlled illumination (12 h dark; 12 h light) with ad libitum access to sterilized water and food (Cat no: 1314Fort, ALTROMIN company, Germany). MCF-7/Dox cells (1×10^7) in […] PBS were injected subcutaneously into each nude mouse. […] Tumor growth was monitored periodically, and the tumor volume (V) was calculated by using V=½× length×(width)^2. […]
# [3] = system: MCF7/Dox xenograft tumors; experiment: Xenograft tumor study; type: in vivo; settings: mice, C1 15 mg/kg/d, Dox 2 mg/Kg/d + DCA 50 mg/Kg/d, once every four days
# Procedure: as §2, §3, §4
# [4] = Hepatotoxicity assay, serum ALT and AST; type: in vivo; settings: mice bearing MCF7/Dox tumors
# Procedure: Tumors are shown (right). […] C1 injection led to a 58% reduction in tumor growth, which was statistically greater than the reductions seen in the case of C2 (16%), C3 (9%), C4 (6%) and DMSO (0%) tested under otherwise identical conditions.
# Blood samples of each mice were centrifuged at 3,000 rpm for 10 min at 4° C. to produce serum. Then, the activities of ALT and AST in serum were analyzed using the AST and ALT Activity Assay Kits (MAK055, MAK052, Sigma) according to the manufacturer's instructions.
# MCF7 and MCF7/Dox tumors = experiment: In vivo and ex vivo fluorescent imaging; settings: mice bearing MCF7 and MCF7/Dox tumors
smiles,measurement,setting,value
COc1cccc2c1C(=O)c1c(O)c3c(c(O)c1C2=O)C[C@@](O)(C(=O)CO)C[C@@H]3OC1C[C@H](NC(=O)OC(Cc2cn(CCCCCC[P+](c3ccccc3)(c3ccccc3)c3ccccc3)nn2)c2ccc(NC(=O)C(Cl)Cl)cc2)[C@H](O)[C@H](C)O1.[Br-] (stereo partly drawn) [C1],decomposition upon incubation in PBS,[1],no decomposition was observed
same,"fluorescence response to various amino acids, enzymes and biomolecules versus esterase","carboxylesterase; 590 nm emission, 4 h incubation",large fluorescence enhancements in the 590 nm emission feature were observed upon treatment with the esterase but not in its absence
same,"response to carboxylesterase (bond scission, Dox release)","carboxylesterase; carboxylesterase 1 U/mL, PBS, 37° C.",scission of the aniline-amide bond and release of Dox
same,tumor cell selectivity of cellular uptake,[2],taken up specifically by cancer cells
same,intracellular accumulation in MCF7/Dox versus MCF7,MCF7 and MCF7/Dox cells,comparable level in both MCF7 and MCF7/Dox cells
same,reduction in the tumor volume,MCF7 xenograft tumors,approximately 78%
same,reduction in the tumor volume,[3],~74%
same,toxicity from ALT and AST levels in blood serum,[4],no significant toxicity
same,tumor specificity of Dox accumulation (fluorescence imaging of mice and dissected organs),MCF7 and MCF7/Dox tumors,highly tumor-specific accumulation of Dox
